Results on 31 compounds are retold here after patent US9221834B2 (Merck Sharp & Dohme Corp., priority 2010, dated 2015).

One may read the IC50 as the concentration that inhibits the measured activity by half.

Molecules are shown by their SMILES.

This assay has as its target T1, recombinant CETP (rCETP) (Homo sapiens, UniProt P11597).
T1 sequence (P11597 18-493): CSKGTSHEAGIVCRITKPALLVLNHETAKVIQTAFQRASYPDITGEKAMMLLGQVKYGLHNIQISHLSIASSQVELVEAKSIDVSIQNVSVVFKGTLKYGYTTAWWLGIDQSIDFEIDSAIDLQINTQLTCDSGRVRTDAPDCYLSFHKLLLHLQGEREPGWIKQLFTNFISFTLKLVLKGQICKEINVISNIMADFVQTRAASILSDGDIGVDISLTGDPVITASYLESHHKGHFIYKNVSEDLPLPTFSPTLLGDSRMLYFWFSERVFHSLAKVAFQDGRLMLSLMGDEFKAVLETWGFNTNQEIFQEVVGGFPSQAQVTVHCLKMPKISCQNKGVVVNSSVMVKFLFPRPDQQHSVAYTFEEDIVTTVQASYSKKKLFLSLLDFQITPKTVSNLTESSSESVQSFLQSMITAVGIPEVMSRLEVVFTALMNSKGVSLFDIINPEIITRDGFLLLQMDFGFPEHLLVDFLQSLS
As to the kind of experiment: RTA assay using recombinant CETP (2% RTA). In kind it is biochemical. Particulars: RTA assay in 2% human serum; read-out: IC50. Summed up: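 Compounds preincubated 1 h at 37 °C with assay cocktail (CETP buffer: 50 mM Tris pH 7.4, 100 mM NaCl, 1 mM EDTA; human HDL acceptor); transfer started with [3H]cholesteryl oleate- or [3H]triolein-labelled LDL, 60 min at 37 °C. LDL PEG-precipitated; supernatant counted by scintillation, blank-corrected; IC50 from 4-parameter sigmoidal fit of % inhibition vs DMSO control.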

As for `COc1ccc(-c2csc(C(=O)O)c2OC)cc1-c1ccc(N2CCC2)nc1CN1C(=O)O[C@H](c2cc(C(F)(F)F)cc(C(F)(F)F)c2)[C@@H]1C` [Example 110], the IC50 is 44 nM.
For `COc1ccc(-c2sc(C(=O)O)c(C)c2C)cc1-c1ccc(N2CCC2)nc1CN1C(=O)O[C@H](c2cc(C(F)(F)F)cc(C(F)(F)F)c2)[C@@H]1C` [Example 111] the value was 5 nM.
For `COc1ccc(-c2ccc(C(=O)O)o2)cc1-c1ccc(N2CCC2)nc1CN1C(=O)O[C@H](c2cc(C(F)(F)F)cc(C(F)(F)F)c2)[C@@H]1C` [Example 112] the value was 184 nM; for `COc1ccc(-c2cc(C(=O)O)co2)cc1-c1ccc(N2CCC2)nc1CN1C(=O)O[C@H](c2cc(C(F)(F)F)cc(C(F)(F)F)c2)[C@@H]1C` [Example 113], 29 nM.
For `COc1ccc(-c2ncc(C(=O)O)s2)cc1-c1ccc(N2CCC2)nc1CN1C(=O)O[C@H](c2cc(C(F)(F)F)cc(C(F)(F)F)c2)[C@@H]1C` [Example 114] the value was 50 nM; for `COc1ccc(-c2nc(C(=O)O)cs2)cc1-c1ccc(N2CCC2)nc1CN1C(=O)O[C@H](c2cc(C(F)(F)F)cc(C(F)(F)F)c2)[C@@H]1C` [Example 115], 285 nM; for `COc1ccc(-c2nc(C)c(C(=O)O)s2)cc1-c1ccc(N2CCC2)nc1CN1C(=O)O[C@H](c2cc(C(F)(F)F)cc(C(F)(F)F)c2)[C@@H]1C` [Example 116], 77 nM.
On to `COc1ccc(-c2ncc(C(=O)O)n2C)cc1-c1ccc(N2CCC2)nc1CN1C(=O)O[C@H](c2cc(C(F)(F)F)cc(C(F)(F)F)c2)[C@@H]1C` [Example 117], for which the IC50 was found to be 25 nM.
As for `COc1ccc(-c2c(C)cc(C(=O)O)n2C)cc1-c1ccc(N2CCC2)nc1CN1C(=O)O[C@H](c2cc(C(F)(F)F)cc(C(F)(F)F)c2)[C@@H]1C` [Example 119], the figure is 5 nM; as for `COc1ccc(-c2ccc(C(=O)O)nc2)cc1-c1ccc(N2CCC2)nc1CN1C(=O)O[C@H](c2cc(C(F)(F)F)cc(C(F)(F)F)c2)[C@@H]1C` [Example 120], 33 nM.
Turning to `COc1ccc(-c2ccc(C(=O)O)cn2)cc1-c1ccc(N2CCC2)nc1CN1C(=O)O[C@H](c2cc(C(F)(F)F)cc(C(F)(F)F)c2)[C@@H]1C` [Example 121], the IC50 came out at 28 nM.
For `COc1ccc(CC(C)(C)C(=O)O)cc1-c1ccc(N2CCC2)nc1CN1C(=O)O[C@H](c2cc(C(F)(F)F)cc(C(F)(F)F)c2)[C@@H]1C` [Example 122, 3-{3-[6-Azetidin-1-yl-2-({(4S,5R)-5-[3,5-bis(trifluoromethyl)phenyl]-4-methyl-2-oxo-1,3-oxazolidin-3-yl}methyl)pyridin-3-yl]-4-methoxyphenyl}-2,2-dimethylpropanoic acid] the value was 15 nM; for `CCOC(=O)[C@@H]1CC1c1ccc(OC)c(-c2cnc(N3CCC3)nc2CN2C(=O)O[C@H](c3cc(C(F)(F)F)cc(C(F)(F)F)c3)[C@@H]2C)c1` (stereo partly shown) [Example 124], 33 nM; for `COc1ccc([C@H]2CC[C@H](C(=O)OC)CC2)cc1-c1cnc(N2CCC2)nc1CN1C(=O)O[C@H](c2cc(C(F)(F)F)cc(C(F)(F)F)c2)[C@@H]1C` [Example 125], 60 nM.
As for `CCOC(=O)C[C@@H]1CCc2cc(OC)c(-c3cnc(N4CCC4)nc3CN3C(=O)O[C@H](c4cc(C(F)(F)F)cc(C(F)(F)F)c4)[C@@H]3C)cc21` [Example 126], the figure is 134 nM; as for `COc1ccc(CC(C)(C)C(=O)OC(C)(C)C)cc1-c1cnc(N2CCC2)nc1CN1C(=O)O[C@H](c2cc(C(F)(F)F)cc(C(F)(F)F)c2)[C@@H]1C` [Example 127], 114 nM.
With `COc1ccc([C@H]2CC[C@H](C(=O)OC)CC2)cc1-c1cnc(N2CC(F)(F)C2)nc1CN1C(=O)O[C@H](c2cc(C(F)(F)F)cc(C(F)(F)F)c2)[C@@H]1C` [Example 128], the IC50 stood at 1080 nM.
For `CCOC(=O)[C@@H]1CC1c1ccc(OC)c(-c2cnc(N3CC(F)(F)C3)nc2CN2C(=O)O[C@H](c3cc(C(F)(F)F)cc(C(F)(F)F)c3)[C@@H]2C)c1` (stereo partly shown) [Example 129] the value was 18 nM.
For `CCOC(=O)C[C@@H]1CCc2cc(OC)c(-c3cnc(N4CC(F)(F)C4)nc3CN3C(=O)O[C@H](c4cc(C(F)(F)F)cc(C(F)(F)F)c4)[C@@H]3C)cc21` [Example 130] the value was 32 nM.
Consider `COC(=O)c1ccc(-c2ccc(OC)c(-c3cnc(N4CC(F)(F)C4)nc3CN3C(=O)O[C@H](c4cc(C(F)(F)F)cc(C(F)(F)F)c4)[C@@H]3C)c2)c(C)c1` [Example 131], for which the 50% inhibitory concentration (IC50) worked out at 10 nM.
As for `COC(=O)c1ccc(-c2cc(-c3cnc(N4CC(F)(F)C4)nc3CN3C(=O)O[C@H](c4cc(C(F)(F)F)cc(C(F)(F)F)c4)[C@@H]3C)c(OC)cc2F)c(C)c1` [Example 132], the figure is 4 nM; as for `CCc1ccc(-c2ccc(C(=O)OC)cc2C)cc1-c1cnc(N2CC(F)(F)C2)nc1CN1C(=O)O[C@H](c2cc(C(F)(F)F)cc(C(F)(F)F)c2)[C@@H]1C` [Example 133], 39 nM; as for `COC(=O)c1ccc(-c2ccc(OC)c(-c3cnc(N4CC(OC)C4)nc3CN3C(=O)O[C@H](c4cc(C(F)(F)F)cc(C(F)(F)F)c4)[C@@H]3C)c2)c(C)c1` [Example 135], 89 nM.
Regarding `COC(=O)c1ccc(-c2cc(-c3cnc(N4CC(OC)C4)nc3CN3C(=O)O[C@H](c4cc(C(F)(F)F)cc(C(F)(F)F)c4)[C@@H]3C)c(OC)cc2F)c(C)c1` [Example 136], the half-maximal inhibitory concentration (IC50) was 55 nM.
As for `CCc1ccc(-c2ccc(C(=O)OC)cc2C)cc1-c1cnc(N2CC(OC)C2)nc1CN1C(=O)O[C@H](c2cc(C(F)(F)F)cc(C(F)(F)F)c2)[C@@H]1C` [Example 137], the figure is 605 nM.
For `COC(=O)[C@H]1CC[C@H](c2ccc(Cl)c(-c3cnc(N4CC(OC)C4)nc3CN3C(=O)O[C@H](c4cc(C(F)(F)F)cc(C(F)(F)F)c4)[C@@H]3C)c2)CC1` [Example 138] the value was 2030 nM.
As for `COC(=O)CCc1ccc(OC)c(-c2c(C)nc(N3CC(F)(F)C3)nc2CN2C(=O)O[C@H](c3cc(C(F)(F)F)cc(C(F)(F)F)c3)[C@@H]2C)c1` [Example 139, Methyl 3-{3-[4-({(4S,5R)-5-[3,5-bis(trifluoromethyl)phenyl]-4-methyl-2-oxo-1,3-oxazolidin-3-yl}methyl)-2-(3,3-difluoroazetidin-1-yl)-6-methylpyrimidin-5-yl]-4-methoxyphenyl}propanoate], the figure is 13 nM; as for `COC(=O)CCc1ccc(OC)c(-c2cnc(N3CC(OC)C3)nc2CN2C(=O)O[C@H](c3cc(C(F)(F)F)cc(C(F)(F)F)c3)[C@@H]2C)c1` [Example 140, Methyl 3-{3-[4-({(4S,5R)-5-[3,5-bis(trifluoromethyl)phenyl]-4-methyl-2-oxo-1,3-oxazolidin-3-yl}methyl)-2-(3-methoxyazetidin-1-yl)pyrimidin-5-yl]-4-methoxyphenyl}propanoate], 344 nM.
In the case of `COC(=O)CCc1ccc(OC)c(-c2cnc(N3CC(F)C3)nc2CN2C(=O)O[C@H](c3cc(C(F)(F)F)cc(C(F)(F)F)c3)[C@@H]2C)c1` [Example 143], the 50% inhibitory concentration (IC50) worked out at 7 nM.
As for `COC(=O)CCc1ccc(OC)c(-c2cnc(N3CC(F)(F)C3)nc2CN2C(=O)O[C@H](c3cc(C(F)(F)F)cc(C(F)(F)F)c3)[C@@H]2C)c1` [Example 144], the figure is 17 nM.
As for `COC(=O)CC(C)(C)c1ccc(OC)c(-c2cnc(N3CCC3)nc2CN2C(=O)O[C@H](c3cc(C(F)(F)F)cc(C(F)(F)F)c3)[C@@H]2C)c1` [Example 145], the figure is 16 nM.
